Assay results reported in patent US20240018136A1, “CDK Inhibitors And Their Use As Pharmaceuticals” (Prelude Therapeutics, Incorporated, priority 2022, published 2024).

What was measured:
CDK2/Cyclin E2 = CDK2/Cyclin E2 (Homo sapiens, UniProt P24941); experiment: CDK2/CyclinE2 enzymatic activity assay (TR-FRET); assay type: biochemical; settings: ATP 1 mM final, read-out: CDK2_E1 IC50
Method in brief: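 Insect-cell-expressed CDK2/Cyclin E2 (1 nM), ULight-4E-BP1 (50 nM) and ATP (1 mM) in HEPES pH 7.4 buffer were preincubated 20 min at RT with compound (9-dose, 3-fold), started with 10 mM MgCl2 and run 45 min at 37 °C. EDTA/Eu-anti-P-4E-BP1 stop, 60 min TR-FRET detection; IC50 from 4-parameter Hill fit.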

CDK4/Cyclin D1 = target: T1, CDK4/Cyclin D1 (Homo sapiens, UniProt P11802); experiment: CDK4/CyclinD1 enzymatic activity assay (TR-FRET); assay type: biochemical; settings: ATP 2 mM final, read-out: CDK4_D1 IC50
T1 construct: purchased ProQinase; host or cells: insect cell
Method in brief: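 Insect-cell-expressed CDK4/Cyclin D1 (1 nM) phosphorylated ULight-4E-BP1 peptide (100 nM) at 2 mM ATP in HEPES pH 7.4 buffer after 20 min compound preincubation. Reaction started with 10 mM MgCl2, ran 45 min at 37 °C, then EDTA quench and Eu-anti-phospho-4E-BP1 TR-FRET detection. IC50 from 9-point 3-fold dilutions, 4-parameter fit.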

OVCAR3 p-RB = experiment: pRB ICW assay in OVCAR3 cells; assay type: cell-based; settings: Homo sapiens, OVCAR-3, incubated with compound for 2 hours
Method in brief: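 OVCAR3 cells were treated 2 h at 37 °C with a 9-point half-log compound series, in duplicate, with 10 μM reference compound as maximum inhibition. Cells were then fixed, permeabilized and stained with anti-phospho-RB plus DRAQ5. In-cell western intensities were read at 700/800 nm on Odyssey CLx.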

T1 sequence (P11802 whole entry): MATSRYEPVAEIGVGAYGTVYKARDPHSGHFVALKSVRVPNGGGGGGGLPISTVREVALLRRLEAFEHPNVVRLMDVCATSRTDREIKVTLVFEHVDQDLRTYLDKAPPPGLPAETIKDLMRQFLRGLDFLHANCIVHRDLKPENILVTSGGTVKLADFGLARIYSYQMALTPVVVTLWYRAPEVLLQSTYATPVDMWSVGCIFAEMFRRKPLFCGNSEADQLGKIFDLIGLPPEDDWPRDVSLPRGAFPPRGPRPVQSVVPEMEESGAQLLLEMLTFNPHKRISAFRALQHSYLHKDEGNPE
T1 sequence (P24385 whole entry partner): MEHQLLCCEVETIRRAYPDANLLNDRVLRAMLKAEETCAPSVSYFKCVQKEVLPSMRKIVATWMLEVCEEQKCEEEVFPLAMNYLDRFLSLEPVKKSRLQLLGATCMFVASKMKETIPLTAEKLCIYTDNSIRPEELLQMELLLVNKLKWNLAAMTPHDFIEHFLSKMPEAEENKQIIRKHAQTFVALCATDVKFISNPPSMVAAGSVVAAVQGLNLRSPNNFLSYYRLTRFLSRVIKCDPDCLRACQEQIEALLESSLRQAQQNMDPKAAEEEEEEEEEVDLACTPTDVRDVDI

Row | IC50 (CDK2/Cyclin E2) | IC50 (CDK4/Cyclin D1) | IC50 (OVCAR3 p-RB) | SMILES
1 | ≤ 0.1 µM | ≤ 0.1 µM | ≤ 0.1 µM | CC(O)c1ncc(-c2nc(NC3CCN(S(=O)(=O)c4ccsc4)CC3)ncc2C(F)(F)F)s1 (stereo not drawn) [Example 85, 1-(5-(2-((1-(thiophen-3-ylsulfonyl)piperidin-4-yl)amino)-5-(trifluoromethyl)pyrimidin-4-yl)thiazol-2-yl)ethan-1-ol]
2 | ≤ 0.1 µM | 0.1 to 1 µM | 0.1 to 1 µM | CC(O)c1ncc(-c2nc(N[C@H]3CCN(S(=O)(=O)c4c[nH]cn4)C[C@H]3C)ncc2C(F)(F)F)s1 (stereo partly drawn) [Example 104, 1-(5-(2-(((3R,4S)-1-((1H-imidazol-4-yl)sulfonyl)-3-methylpiperidin-4-yl)amino)-5-(trifluoromethyl)pyrimidin-4-yl)thiazol-2-yl)ethan-1-ol]
3 | ≤ 0.1 µM | ≤ 0.1 µM | 0.1 to 1 µM | Cc1ncc(-c2nc(N[C@@H]3CCN(S(=O)(=O)c4cnn(C)c4)C[C@H]3F)ncc2C(F)(F)F)s1 [Example 93, N-((3R,4R)-3-fluoro-1-((1-methyl-1H-pyrazol-4-yl)sulfonyl)piperidin-4-yl)-4-(2-methylthiazol-5-yl)-5-(trifluoromethyl)pyrimidin-2-amine]
4 | ≤ 0.1 µM | ≤ 0.1 µM | ≤ 0.1 µM | Cn1cnc(S(=O)(=O)N2CC[C@H](Nc3ncc(C(F)(F)F)c(-c4cnc(CC(C)(C)O)s4)n3)[C@H](F)C2)c1 [Example 74, 1-(5-(2-(((3R,4S)-3-fluoro-1-((1-methyl-1H-imidazol-4-yl)sulfonyl)piperidin-4-yl)amino)-5-(trifluoromethyl)pyrimidin-4-yl)thiazol-2-yl)-2-methylpropan-2-ol]
5 | 0.1 to 1 µM | ≤ 0.1 µM | 0.1 to 1 µM | CS(=O)(=O)N1CCC(Nc2ncc(C(F)(F)F)c(-c3cnc(C4=CCOCC4)s3)n2)CC1 [Example 2, 4-[2-(3,6-Dihydro-2H-pyran-4-yl)-1,3-thiazol-5-yl]-N-(1-methyl-sulfonylpiperidin-4-yl)-5-(trifluoromethyl)pyrimidin-2-amine]
6 | ≤ 0.1 µM | ≤ 0.1 µM | ≤ 0.1 µM | Cc1ncc(-c2nc(N[C@H]3CCN(S(=O)(=O)c4cnn(C)c4)C[C@H]3F)ncc2C(F)(F)F)s1 [Example 94, N-((3R,4S)-3-fluoro-1-((1-methyl-1H-pyrazol-4-yl)sulfonyl)piperidin-4-yl)-4-(2-methylthiazol-5-yl)-5-(trifluoromethyl)pyrimidin-2-amine]
7 | ≤ 0.1 µM | 0.1 to 1 µM | > 1 µM | CCNS(=O)(=O)N1CCC(Nc2ncc(C(F)(F)F)c(-c3cnc(C)s3)n2)CC1 [Example 48, N-Ethyl-4-((4-(2-methylthiazol-5-yl)-5-(trifluoromethyl)pyrimidin-2-yl)amino)piperidine-1-sulfonamide]
8 | ≤ 0.1 µM | ≤ 0.1 µM | ≤ 0.1 µM | CC(C)(O)Cc1ncc(-c2nc(NC3CCN(S(=O)(=O)c4cnn(CC#N)c4)CC3)ncc2C(F)(F)F)s1 [Example 77]
9 | ≤ 0.1 µM | ≤ 0.1 µM | 0.1 to 1 µM | Cc1cc(C(C)O)ccc1-c1ncc(-c2nc(NC3CCN(S(C)(=O)=O)CC3)ncc2C(F)(F)F)s1 (stereo not drawn) [Example 7, 1-[3-Methyl-4-[5-[2-[(1-methylsulfonylpiperidin-4-yl)amino]-5-(trifluoromethyl)pyrimidin-4-yl]-1,3-thiazol-2-yl]phenyl]ethanol]
10 | ≤ 0.1 µM | ≤ 0.1 µM | ≤ 0.1 µM | CC(C)(O)Cc1ncc(-c2nc(N[C@H]3CCN(S(C)(=O)=O)C[C@H]3F)ncc2C(F)(F)F)s1 [Example 69, 1-(5-(2-(((3R,4S)-3-fluoro-1-(methylsulfonyl)piperidin-4-yl)amino)-5-(trifluoromethyl)pyrimidin-4-yl)thiazol-2-yl)-2-methylpropan-2-ol]
11 | ≤ 0.1 µM | ≤ 0.1 µM | 0.1 to 1 µM | Cc1ncc(-c2nc(NC3CCN(S(=O)(=O)c4ccn(C)n4)CC3)ncc2C(F)(F)F)s1 [Example 59, N-[1-(1-Methylpyrazol-3-yl)sulfonylpiperidin-4-yl]-4-(2-methyl-1,3-thiazol-5-yl)-5-(trifluoromethyl)pyrimidin-2-amine]
